PMC9578445, “Association of respiratory failure with inhibition of NaV1.6 in the phrenic nerve” (Channels, 2022)
Read-outs that look alike come from different tables or passages of the source.

Columns and labels:
Human NaV1.5 = target: T1, Human NaV1.5 (Homo sapiens, UniProt Q14524); test: PatchXpress automated patch clamp, depolarized-state protocol; assay type: cell-based; conditions: HEK 293 cells
T1 construct: expressed in transfected cells
Method: Sodium currents were recorded from recombinant Human Embryonic Kidney 293 cell lines stably overexpressing the respective sodium channel type (NaV1.2, 1.5, 1.4, 1.6, 1.7). Recording solutions were comprised of the following (in mM): Internal solution: 30 CsCl, 5 HEPES, 10 EGTA, 120 CsF, 5 NaF, 2 MgCl2, pH = 7.3 with CsOH; External solution 1: 40 NaCl, 120 NMDG, 1 KCl, 0.5 MgCl2, 5 HEPES, 2.7 CaCl2, pH to 7.3 with NaOH, used for NaV1.5 recordings; External solution 2: 150 NaCl, 5 KCl, 2 CaCl2, 1 MgCl2, 10 HEPES, 12 Dextrose, pH 7.3 with NaOH, used for NaV1.7, 1.6, 1.4, and 1.2 recordings.
Whole-cell currents were recorded from cells stably expressing NaV channels using the PatchXpress 7000A automated patch clamp platform (Molecular Devices, LLC; Sunnyvale, CA). A portable air-conditioning unit was installed on the PatchXpress instruments to maintain the temperature of the headstage at 21°C. Cells were voltage clamped at −60 mV for cell detection and sealing. At the start of each recording, a voltage curve and an inactivation curve was run for each cell to determine the voltage at which 50% of the channels reside in the inactivated state (V0.5 inact). The voltage curve was used to determine if the cell was adequately clamped; cells with currents larger than 10nA or with space clamp issues were not used further.
NaV1.5: Compound potency was measured in a depolarized-state protocol where the holding potential for each cell was set to V0.5inact – 20 mV. The pulse protocol consisted of an 8 sec prepulse to V0.5inact + 7 mV, followed by a 2 ms hyperpolarization to −120 mV and a 10 ms test pulse to −10 mV. First, vehicle (0.3% DMSO) was added to establish a baseline measurement. Once baseline was established, a test compound was added. Cells were exposed to compound for 5 minutes at V0.5inact – 20 mV. Compound washout was performed to measure the recovery of the sodium currents from inhibition.
Recordings were included for analysis when current amplitude reached steady-state in vehicle, compound inhibition was concentration-dependent and currents recovered during wash-out periods. Raw data from PatchXpress experiments were retrieved from the database and analyzed using the DataXpress 2 software (Molecular Devices).
At least 3 concentrations (3–9 replicates per concentration) were tested and at least one concentration had to cause 20–80% current inhibition.

[1] = test system: rat diaphragm with the phrenic nerve attached; test: Rat hemisected diaphragm (HMD) assay, ex vivo; conditions: for inhibition in rat HMD assay: at both 10 and 30 μM; for IC50: relative to 3 μM d-Tubocurarine relaxation = 100%
Text: Wistar derived male or female rats weighing 450 ± 50 g were euthanized by CO2 overexposure. The diaphragm with the phrenic nerve attached was removed and placed into a tissue recording chamber containing Krebs solution pH 7.4; (composition in g/L: NaCl 6.89, KCl 0.35, CaCl2 0.277, KH2PO4 0.163, MgSO4 · 7H2O 0.296, NaHCO3 2.1 and glucose 1.8). A piece of cotton was attached to the top of the phrenic nerve over the jaw electrodes. A second piece of cotton was attached to the tip of the tendinous tissue at the apex of the diaphragm preparation for attachment to an isometric transducer under 1 g tension. The rib of the diaphragm preparation was secured to the bottom of the jaw electrodes. […] The recording chamber was placed into a water bath kept at a temperature of 32°C by means of a suitable thermoregulator consisting of a thermostat and heating elements in addition to a water circulator.
The isometric transducer was connected to an amplifier and the tissue response was recorded on a two-pen recorder set at 1 volt. Field stimulation [S48 Stimulator (GRASS) set at 0.2 Hz (12 pulses per minute), 0.5 ms pulse duration at 70% of maximum voltage (about 3 to 5 volts)] delivered to two circle platinum electrodes (0.2 cm in diameter) was applied for transmural tissue stimulation. Each tissue preparation was washed three times in Krebs solution every 15 minutes for a 60 minute equilibration period and permitted to develop contractions. D-Tubocurarine (300 µM dissolved in 0.1 mL distilled water for a final 3 µM bath concentration) was added to establish an isometrically recorded control relaxation response ranging from one to two centimeters and corresponding to 60–70% of maximal relaxation. […] The tissue was then washed periodically until the contraction returns to the baseline value.
Sixty minutes later, the test compound was added (e.g. 30 mM in 0.01 mL vehicle of 100% DMSO, for final concentration of 30 µM test compound and 0.1% DMSO). A test compound recorded relaxation response of 50% or more (≥50%) within 5 minutes, relative to the 3 µM d-Tubocurarine control response, indicates neuromuscular blocking activity.

[2] = Permeability (Papp, passive diffusion); assay type: in vitro ADME
phrenic nerve = test: Rat phrenic nerve firing assay; conditions: rat in vivo, measured at 30 minutes
Method: To determine direct effects on phrenic nerve activity, male CD rats were anesthetized and instrumented as described above for the CV/R assay. In addition, an incision was made in the ventral neck area and the right phrenic nerve identified anatomically and isolated via blunt dissection. The phrenic nerve was placed over a high impedance bipolar hook electrode and the nerve covered with mineral oil to prevent desiccation. Animals were mechanically ventilated via a tracheotomy (~10 mL/kg, 40–70 breaths/min, titrated individually to stabilize phrenic activity) following neuromuscular block (pancuronium 0.5–1 mg/kg, iv) and bilateral vagotomy to better define test agent effects on phrenic nerve activity. Anesthesia was verified repeatedly following pancuronium administration by testing the BP/HR response to noxious stimuli. Spontaneous electrical activity was continuously recorded and then later rectified and averaged to calculate frequency, width, peak height of bursts, and magnitude. Magnitude of the activity was calculated by taking the absolute value of the raw signal and then averaging that signal over 50 ms increments. The resulting average signal was then converted to magnitude by subtracting the […] for each phrenic burst complex. The resulting magnitude values were then averaged over 1 minute increments to result in the graphs shown. Figure S1 in the Supplemental Information illustrates this analytical procedure.
(§1) For in vivo CVR and phrenic nerve activity studies, all raw signals were amplified via general purposed biological amplifier (filter settings DC – 3-5 KhZ) then digitized, calibrated and collected at a minimum of 500 Hz (1000 Hz for ECG and 2000 Hz for cardiac electrograms, and 10 KHz for phrenic nerve activity) using Notocord-HEM data acquisition and analysis software. The raw signal was filtered following acquisition with a bandpass filter set to 200–800 Hz). Vehicle (100% dimethylformamdide, DMF) or compound formulated in the vehicle was administered as a 30-minute IV infusion at 0.0167 μL/g body weight/min. Doses were selected to achieve unbound plasma concentrations in range of measured Nav1.6 IC50 values when infused at 0.0167uL/g body weight/min based on measured rat clearance, plasma protein binding and Nav1.6 IC50. Exposure in rats was determined in separate pharmacokinetics experiments where compounds were administered via IV dosing.

[3] = Plasma exposure in phrenic nerve activity assay; assay type: in vivo; conditions: rat; for concentration at 15 min / concentration at 30 min: CD, plasma, intravenous
Text: as §1

[4] = 30 mg/kg, read-out: Total [plasma]
[5] = 30 mg/kg, read-out: Unbound [plasma]
[6] = 60 mg/kg, read-out: Total [plasma]
[7] = 60 mg/kg, read-out: Unbound [plasma]

T1 sequence (Q14524 whole entry): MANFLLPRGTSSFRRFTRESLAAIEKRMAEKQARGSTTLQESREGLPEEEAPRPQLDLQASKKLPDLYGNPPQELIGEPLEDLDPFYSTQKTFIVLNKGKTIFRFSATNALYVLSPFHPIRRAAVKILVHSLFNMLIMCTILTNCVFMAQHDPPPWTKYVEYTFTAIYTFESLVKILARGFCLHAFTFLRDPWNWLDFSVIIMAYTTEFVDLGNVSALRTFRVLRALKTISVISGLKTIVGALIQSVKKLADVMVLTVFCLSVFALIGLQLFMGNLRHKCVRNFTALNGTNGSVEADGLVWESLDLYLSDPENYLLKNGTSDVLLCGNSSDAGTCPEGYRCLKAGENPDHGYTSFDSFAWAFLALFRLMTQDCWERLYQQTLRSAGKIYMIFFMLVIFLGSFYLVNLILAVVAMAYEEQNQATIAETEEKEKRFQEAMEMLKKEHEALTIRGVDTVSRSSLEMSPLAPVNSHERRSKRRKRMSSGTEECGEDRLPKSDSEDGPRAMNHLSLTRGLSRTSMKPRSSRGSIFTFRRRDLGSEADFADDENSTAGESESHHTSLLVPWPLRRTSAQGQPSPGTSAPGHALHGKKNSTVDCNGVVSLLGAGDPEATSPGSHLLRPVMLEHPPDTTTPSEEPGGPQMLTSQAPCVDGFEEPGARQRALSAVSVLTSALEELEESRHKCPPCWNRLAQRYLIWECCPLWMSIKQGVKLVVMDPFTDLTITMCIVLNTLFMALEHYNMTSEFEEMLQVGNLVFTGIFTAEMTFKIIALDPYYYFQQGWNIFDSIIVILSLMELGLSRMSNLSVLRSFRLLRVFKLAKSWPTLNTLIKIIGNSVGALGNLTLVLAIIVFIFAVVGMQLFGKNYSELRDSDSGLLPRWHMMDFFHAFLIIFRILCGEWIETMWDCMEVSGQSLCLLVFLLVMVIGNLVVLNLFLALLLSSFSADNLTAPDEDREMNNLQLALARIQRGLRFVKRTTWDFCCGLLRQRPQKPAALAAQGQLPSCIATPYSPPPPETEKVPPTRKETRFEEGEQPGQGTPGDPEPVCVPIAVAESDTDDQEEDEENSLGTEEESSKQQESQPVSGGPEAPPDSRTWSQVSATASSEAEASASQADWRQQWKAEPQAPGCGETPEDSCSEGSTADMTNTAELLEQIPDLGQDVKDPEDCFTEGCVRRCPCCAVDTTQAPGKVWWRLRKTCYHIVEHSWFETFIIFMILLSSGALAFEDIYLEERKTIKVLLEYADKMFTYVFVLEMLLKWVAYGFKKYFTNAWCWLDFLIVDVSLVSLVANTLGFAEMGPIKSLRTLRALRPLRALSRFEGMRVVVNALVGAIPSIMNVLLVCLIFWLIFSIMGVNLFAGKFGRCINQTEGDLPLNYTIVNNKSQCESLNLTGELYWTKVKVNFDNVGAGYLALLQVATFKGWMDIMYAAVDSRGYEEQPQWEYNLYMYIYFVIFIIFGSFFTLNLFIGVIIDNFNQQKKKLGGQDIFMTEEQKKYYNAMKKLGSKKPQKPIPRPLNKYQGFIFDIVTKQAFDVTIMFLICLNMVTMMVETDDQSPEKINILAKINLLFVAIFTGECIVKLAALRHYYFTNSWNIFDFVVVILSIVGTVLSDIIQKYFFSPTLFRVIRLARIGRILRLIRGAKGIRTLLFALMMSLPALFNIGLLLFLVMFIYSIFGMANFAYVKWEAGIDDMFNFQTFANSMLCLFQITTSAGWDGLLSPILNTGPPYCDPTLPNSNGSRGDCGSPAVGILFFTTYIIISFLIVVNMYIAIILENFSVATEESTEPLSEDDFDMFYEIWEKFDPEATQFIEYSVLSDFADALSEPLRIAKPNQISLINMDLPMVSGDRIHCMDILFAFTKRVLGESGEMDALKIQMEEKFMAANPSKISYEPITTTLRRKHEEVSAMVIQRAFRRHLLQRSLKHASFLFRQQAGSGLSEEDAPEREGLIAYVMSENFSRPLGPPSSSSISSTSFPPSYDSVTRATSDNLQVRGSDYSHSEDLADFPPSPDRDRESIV

Q: Which IC50 (Human NaV1.5) does the source give for `COc1ccc(CCC(c2cccc3c2CNCC3)n2c(=O)oc3cc(S(=O)(=O)Nc4ncns4)c(F)cc32)cc1` (stereo not shown) [SSCI-6] here?
A: > 30 µM

Q: What about the “Ex vivo HMD inhibition” value ([1]; at 10 (μM), relative to 3 μM d-Tubocurarine = 100%) of the same compound?
A: 130% at 10

Q: What about the “inhibition in rat HMD assay” value [1] of the same compound?
A: supramaximal inhibition

Q: With `C[C@H](c1cccc2c1CNCC2)n1c(=O)oc2cc(S(=O)(=O)Nc3ncns3)ccc21` [SSCI-3] as the compound, how does the Papp [2] read?
A: 1.716 10e-6cm/s

Q: And the “percent decrease in the magnitude of the phrenic nerve signal” value (phrenic nerve)?
A: 74.2%

Q: What about the IC50 (Human NaV1.5) of the same compound?
A: > 30 µM

Q: And the IC50 ([1]; Rattus norvegicus)?
A: 2.7 µM

Q: And the concentration at 15 min [3, 4]?
A: 32.1 ± 3.4 µM

Q: What about the concentration at 15 min [3, 5] of the same compound?
A: 3.78 ± 0.4 µM

Q: What about the “Total [plasma]” value ([3]; 30 mg/kg, 22–30 min) of the same compound?
A: 43.549 ± 3.116 µM

Q: What about the “Unbound [plasma]” value ([3]; 30 mg/kg, 22–30 min) of the same compound?
A: 5.138 ± 0.36 µM

Q: Which results are given for `O=S(=O)(Nc1nccs1)c1cc(Cl)c(NCCCCNC[C@H]2CCCN2)cc1F` [SSCI-1]?
A: Papp [2]: 1.027 10e-6cm/s; percent decrease in the magnitude of the phrenic nerve signal (phrenic nerve): did not show any decrease; IC50 (Human NaV1.5): > 30 µM; inhibition of diaphragm contraction / respiratory effect in HMD assay [1]: does not exhibit respiratory effect; inhibition at 30 µM ([1]; Rattus norvegicus, highest concentration tested of 30 μM): < 50%; IC50 ([1]; Rattus norvegicus): > 30 µM; inhibition in rat HMD assay [1]: little effect; concentration at 30 min [3, 4]: 236 ± 110 µM; concentration at 30 min [3, 5]: 15.8 ± 7.37 µM

Q: For `N#Cc1cc(S(=O)(=O)Nc2cscn2)ccc1Oc1ccc(Cl)cc1-c1ccnn1C1CNC1` [SSCI-5], which Papp [2] is on record?
A: 1.351 10e-6cm/s

Q: What about the “percent decrease in the magnitude of the phrenic nerve signal” value (phrenic nerve) of the same compound?
A: 76.1%

Q: What about the IC50 (Human NaV1.5) of the same compound?
A: > 30 µM

Q: What about the IC50 ([1]; Rattus norvegicus) of the same compound?
A: 11 µM

Q: And the concentration at 15 min [3, 6]?
A: 82.7 ± 15.2 µM

Q: What about the concentration at 15 min [3, 7] of the same compound?
A: 10.6 ± 1.94 µM

Q: What about the concentration at 30 min [3, 6] of the same compound?
A: 86.2 ± 42.1 µM

Q: What about the concentration at 30 min [3, 7] of the same compound?
A: 11 ± 5.39 µM
